Key:
primary astrocytes = assay: Extracellular medium acidification (SNARF5) assay in astrocytes; format: cell-based; conditions: Mus musculus, Astrocyte; astrocytes in vitro; compounds 10 nM to 30 μM; read-out: Activity (EC50 class, extracellular medium acidification SNARF5)
Method: To assess for the effect of the compounds of the invention, those were tested in primary mouse astrocytes and astrocytes differentiated from human-derived induced pluripotent stem cells (iPSCs). Secretion of lactate was measured indirectly through the acidification of extracellular medium using extracellular pH sensor SNARE-5F-(AND-6)-CAR (SNARF5) as described below.
Primary cultures of cerebrocortical astrocytes were obtained from 1 to 2-day-old OF1 mouse pups (Charles River Laboratories). Briefly, cortices were isolated and minced in small pieces under a dissecting microscope. The cells were incubated for 30 min at 37° C. in a solution containing 20 U/ml papain, 1 mM L-cysteine and 10 kU/ml DNase I. After dissociation, papain activity was stopped by the addition of fetal calf serum (FCS). Single-cell suspension was then obtained by mechanical dissociation, which consisted in cells trituration in a DMEM D7777 medium supplemented with 44 mm NaHCO3, 10 ml/L antibiotic/antimycotic solution and 10% FCS. The cells were seeded at an average density of ˜10′000 cells/cm^2 on poly-D-lysine coated 96- or 12-well culture plates, depending on their use, and grown in DMEM D7777 medium supplemented with 44 mm NaHCO3, 10 ml/L antibiotic/antimycotic solution and 10% FCS at 37° C. in a humidified atmosphere containing 5% CO2/95% air. Culture medium was renewed twice a week. Cells were stimulated and harvested between DIV14 and DIV17, when confluence and cell growth were optimal.
Secretion of lactate was measured indirectly through the acidification of extracellular medium using extracellular pH sensor SNARF-5F-(AND-6)-CAR (SNARF5). After washing cells twice with stimulation medium (DMEM (D5030, Sigma), 1 mM […], and 5 mM Glucose, pH 7.4) at 37° C., cells were stimulated with compounds at a final concentration ranging from 10 nM to 30 μM in 50 μl per well of stimulation medium supplemented with 10 μM of SNARF5 (Life Technologies Corporation). Each compound was tested in two different plates for duplicates. After 30, 60 and 90 min stimulation, fluorescence was read at exc. (excitation) 480 nm/emm. (emission) 580 nm and at exc 480 nm/emm. 630 nm. The ratio of fluorescence between 630 nm and 580 emission values, which is proportional to extracellular pH, was calculated. In each plate, 8 wells were used for negative controls (DMSO 0.1%) and 8 wells were used for positive controls (CCCP 2 μM in DMSO). Results are shown as % of positive control effect (0% and 100% being activities of the Veh and positive control, respectively).

[1] = system: mice injected with streptozotocin; assay: Inhibitory Avoidance in streptozotocin ICV injection model of Alzheimer's disease; format: in vivo, mouse; conditions: 1 day after training, vs Veh
Method: Craniotomies are performed on isoflurane-anesthetized mice for injections of Veh or streptozotocin in cerebral ventricles (coordinates: −0.5 mm (to bregma), lateral+/−1.0 mm (to midline), ventral −2.2 mm (to dura)) (Kelliny S. et al., Molecular Neurobiology, 2021). A solution composed of Veh (0.9% NaCl) or streptozotocin (5 mg/kg) prepared in 1 μl artificial cerebrospinal fluid solution (aCSF, 20 mM citrate buffer, pH 4.2) is injected in both cerebral ventricles using Hamilton micro syringe at a constant speed of 100-200 nl/min. After injection, skin of the skull is sutured, and mice is monitored closely and receives analgesic treatment for at least 4 days. After mice had fully recovered from surgery, memory tests including Morris Water Maze (MWM), Inhibitory Avoidance (IA) and Novel Object Recognition (NOR), as described below, are performed. […]
Inhibitory avoidance (IA) test is a well-established memory paradigm in rodents that measures contextual memory associated with a mild electrical footshock in a specific context (the dark compartment of the IA chamber). […] Memory retention was measured at 24 h after training by placing the mouse back into the lit compartment and recording its latency (in seconds) to enter the dark compartment. […]

Question: What does the source list for COc1cc2ccnc(Nc3ccc(S(C)(=O)=O)cc3)c2cc1OC [Compound 2, 6,7-dimethoxy-N-(4-methylsulfonylphenyl)isoquinolin-1-amine]?
Answer: EC50 (primary astrocytes): < 1000 nM; memory in the Inhibitory Avoidance ([1]; 10 mg/kg): significantly higher; memory in the Inhibitory Avoidance ([1]; 30 mg/kg): significantly higher
